Laboratory results taken from publication PMC12714101, “CD160-Derived Peptide as a Bidirectional Inhibitor Toward Immune Checkpoints BTLA/HVEM and HVEM/LIGHT” (Journal of Medicinal Chemistry, 2025).
Where a SMILES comes first, the peptide text is derived from it.

How the values were obtained:
[1] = molecular target: T1, BTLA/HVEM complex (Homo sapiens, UniProt Q92956); assay: ELISA inhibition of BTLA/HVEM complex formation; format: biochemical; settings: immobilized HVEM-His, BTLA-Fc 5 μg/mL, PBS-T, 37 °C, mean of three independent experiments; for inhibition at 16.67 µM: peptide 16.67 μM; for inhibition at 50 µM: peptide 50 μM; for inhibition at 150 µM: peptide 150 μM
T1 construct: purchased ACROBiosystems HVM-H52E9 (HVEM-His); BTA-H5255 (BTLA-Fc)
T1 sequence (Q92956 39-202 limits assumed): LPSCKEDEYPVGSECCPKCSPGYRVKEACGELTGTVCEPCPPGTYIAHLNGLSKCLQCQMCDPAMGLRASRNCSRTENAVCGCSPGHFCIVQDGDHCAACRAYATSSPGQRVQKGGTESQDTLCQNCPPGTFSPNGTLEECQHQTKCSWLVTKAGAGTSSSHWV
Experimental: In the subsequent stage of the study, the potential of the obtained compounds to inhibit the interaction between BTLA and HVEM proteins was evaluated using ELISA, following the methodology described in our previous studies. , HVEM was immobilized on the plate and incubated with peptides at three different concentrations, followed by the addition of Fc-tagged BTLA. Detection was carried out using horseradish peroxidase (HRP) conjugated with anti-human IgG and 3,3′,5,5′-tetramethylbenzidine (TMB) as a substrate. Signal intensity was directly proportional to the amount of BTLA bound to HVEM and inversely proportional to the inhibitory activity of the tested peptides. As a control, BTLA and HVEM were incubated in the absence of peptides.
Recombinant human HVEM protein with a His tag was purchased from ACROBiosystems, Newark, DE, USA (no. HVM-H52E9). Recombinant human protein BTLA-Fc and LIGHT-Fc were also purchased from ACROBiosystems, Newark, DE, USA (no. BTA-H5255 and no. LIT-H5269).
ELISA was performed using transparent 96-well NUNC Maxisorp plates (Thermo Fisher Scientific, Waltham, MA, USA). In the first step, HVEM-His, dissolved in PBS at a concentration of 5 μg/mL (100 μL/well), was immobilized on the plate by overnight incubation at 4 °C. Wells were then blocked with 5% bovine serum albumin (BSA) in PBS containing 0.05% Tween 20 (PBS-T) (200 μL/well). Next, peptides dissolved in PBS-T at concentrations of 150, 50, and 16.67 μM were added to the wells (100 μL/well). Following this, BTLA-Fc in PBS-T at a concentration of 5 μg/mL (100 μL/well) was applied. In the next step, goat anti-human IgG antibody conjugated with the HRP (Bio-Rad Laboratories, Hercules, CA, USA) in PBS-T at a ratio of 1:30,000 (v/v) was added (100 μL/well). Colorimetric detection was performed by adding 100 μL of TMB substrate (Thermo Fisher Scientific, Waltham, MA, USA) to each well and incubating the plate in the dark. At each stage, plates were incubated at 37 °C with continuous shaking for 1 h (except TMB, which was incubated for 15 min). After each incubation, wells were washed five times with PBS-T. Absorbance was measured using an Infinite M200 Pro Reader (Tecan Group Ltd., Männedorf, Switzerland) at wavelengths of 650 nm (measurement wavelength) and 492 nm (reference wavelength). Inhibition assays for the HVEM/LIGHT complex were conducted using the same approach, except that LIGHT was used instead of BTLA. The BTLA/HVEM and HVEM/LIGHT complexes without peptides served as controls. Inhibition percentages were calculated based on the assumption that PBS-T has no effect on the formation of BTLA/HVEM or HVEM/LIGHT complexes. Each ELISA was conducted in at least three independent replicates. The data were analyzed using GraphPad Prism 8 software (San Diego, CA, USA).

[2] = tested on: BTLA/HVEM interaction; assay: Cellular reporter assay, HVEM reporter cells (JE6.1-NF-κB::eGFP) stimulated with TCS-BTLA; format: cell-based, human; settings: 30 min preincubation, 24 h coculture, NF-κB::eGFP by flow cytometry, mean of four independent experiments in duplicate; for Inhibition - Cellular assay 16.67 µM: peptide 16.67 μM; for Inhibition - Cellular assay 50 µM: peptide 50 μM; for Inhibition - Cellular assay 150 µM: peptide 150 μM
Experimental: In the next step of the study, the inhibitory properties of the designed peptides were evaluated using previously described cell-based assays. The experiment utilized reporter cells expressing HVEM (JE6.1-NF-κB::eGFP) and T cell stimulator cells expressing BTLA (TCS-BTLA). Activation of the reporter cells by TCS followed a two-signal model. The first is generated through the interaction between the T cell receptor–cluster of differentiation 3 (TCR–CD3) complex on the surface of the reporter cells and a membrane-bound antihuman CD3 single-chain antibody fragment (mAb aCD3) expressed on the TCS cells. The second signal is provided by the binding of HVEM and BTLA, which in this assay results in a strong costimulatory signal via HVEM. Activation of the reporter cells leads to the expression of nuclear factor kappa light chain enhancer of activated B cells (NF-κB), which correlates with the level of enhanced green fluorescent protein (eGFP), measured by flow cytometry. In the absence of peptides, NF-κB expression is normalized to 100%. Disruption of the BTLA/HVEM interaction by peptides results in a concentration-dependent decrease in NF-κB levels. In this study, HVEM-expressing reporter cells were stimulated with BTLA-expressing TCS cells in the presence or absence of tested peptides at three different concentrations.
Cellular studies were performed in the same procedure as we described previously for gD- and BTLA-derived peptides. , The peptides were dissolved in the medium, and their final concentrations in wells were 150, 50, and 16,7 μM. Briefly, reporter cells expressing HVEM (JE6.1-NF-κB::eGFP) (5 × 10^4 cells/well) were preincubated with peptides for 30 min in a 96-well flat-bottom plate. Subsequently, the second cell line expressing BTLA (TCS BTLA) or LIGHT (TCS LIGHT) (2 × 10^4 cells/well) was added and cocultured for 24 h at 37 °C in an atmosphere of 5% CO2. Next, an APC-conjugated mCD45.2 antibody to exclude TCS from the reporter cells was added. The expression of the reporter gene (eGFP) was measured via flow cytometry using a CytoFLEX flow cytometer (Beckman Coulter Inc., Brea, CA, USA), and the results were analyzed using FlowJo v10.10 (FlowJo LLC, Ashland, OR, USA). The data were analyzed using GraphPad Prism 8 software (San Diego, CA, USA).

[3] = tested on: Jurkat E6.1 cells; settings: 150 µM
Experimental: (§1) Before conducting cellular assays, the effects of the peptides on cell viability in Jurkat E6.1 and T cell stimulator (TCS) cell lines, as well as their stability in cell culture supernatant, were evaluated. Jurkat E6.1 cells are human T cell acute lymphoblastic leukemia cells, while TCS is a modified murine thymoma cell line (BW5147). The cellular platforms described below are based on these cells. […] The stability of the peptides in supernatant collected from cells after 24 h of incubation was also assessed.
(§2) Comparison of the binding affinity obtained from SpS and MM-GBSA
(§3) Table S3. Experimental and theoretical binding affinities for the BTLA/HVEM and HVEM/peptide complexes. Experimental Kd values obtained from SpS were used to calculate the corresponding ΔG, while theoretical ΔG values were obtained from MM-GBSA analysis. protein/protein ΔG ΔG obtained from or K [µmol] SD calculated SD MM-GBSA SD
(§4) The cytotoxicity of the peptides against two cell lines, Jurkat E6.1 and TCS, was examined. To estimate the number of viable cells, the CellTiter-Glo® luminescence-based assay

[4] = tested on: T cell stimulator (TCS) cell line (BW5147); settings: 150 µM
Experimental: as §1, §2, §3, §4

Row | Structure (SMILES) | inhibition at 16.67 µM [1] [%] | inhibition at 50 µM [1] [%] | inhibition at 150 µM [1] [%] | Inhibition - Cellular assay 16.67 µM [2] [%] | Inhibition - Cellular assay 50 µM [2] [%] | Inhibition - Cellular assay 150 µM [2] [%] | Cell viability, Jurkat E6.1 [3] [%] | Cell viability, TCS [4] [%]
1 | CC(=O)N[C@@H](Cc1ccccc1)C(=O)N[C@@H](CC(C)C)C(=O)N[C@H]1CSSC[C@@H](C(=O)N[C@@H](CO)C(=O)N2CCC[C@H]2C(=O)N[C@@H](CCC(=O)O)C(=O)N[C@H](C(=O)N[C@@H](CO)C(=O)N[C@@H](CC(C)C)C(=O)N[C@@H](CCCCN)C(N)=O)[C@@H](C)O)NC(=O)[C@H](CC(=O)O)NC(=O)CNC(=O)[C@H](CO)NC(=O)[C@H](CCCNC(=N)N)NC(=O)[C@H](CC(=O)O)NC(=O)[C@H](CCCCN)NC1=O [C3, CD160(59–75)] (HELM PEPTIDE1{[ac].F.L.C.K.D.R.S.G.D.C.S.P.E.T.S.L.K.[am]}$PEPTIDE1,PEPTIDE1,4:R3-11:R3$$$V2.0) | 1.86 | 2.02 | 0.4 | 5.70 | 4.25 | 4.78 |  | 
2 | CC(=O)N[C@@H](Cc1ccccc1)C(=O)N[C@H](C(=O)N[C@H](C(=O)N[C@@H](Cc1ccccc1)C(=O)N[C@@H](CC(C)C)C(=O)N[C@H]1CSSC[C@@H](C(=O)N[C@@H](CO)C(=O)N2CCC[C@H]2C(=O)N[C@@H](CCC(=O)O)C(=O)N[C@H](C(=O)N[C@@H](CO)C(=O)N[C@@H](CC(C)C)C(=O)N[C@@H](CCCCN)C(=O)N[C@@H](CCC(N)=O)C(=O)N[C@@H](CC(C)C)C(=O)N[C@@H](CCCNC(=N)N)C(=O)N[C@@H](CC(C)C)C(N)=O)[C@@H](C)O)NC(=O)[C@H](CC(=O)O)NC(=O)CNC(=O)[C@H](CO)NC(=O)[C@H](CCCNC(=N)N)NC(=O)[C@H](CC(=O)O)NC(=O)[C@H](CCCCN)NC1=O)C(C)C)C(C)C [B5, CD160(56–79)] (HELM PEPTIDE1{[ac].F.V.V.F.L.C.K.D.R.S.G.D.C.S.P.E.T.S.L.K.Q.L.R.L.[am]}$PEPTIDE1,PEPTIDE1,7:R3-14:R3$$$V2.0) | -7.56 | -7.13 | -4.6 | 12.02 | 12.02 | 2.50 | 75 | 
3 | CC[C@H](NC(=O)[C@H](CC(C)C)NC(=O)[C@H](Cc1ccccc1)NC(=O)[C@@H](NC(=O)[C@@H](NC(=O)[C@H](Cc1ccccc1)NC(C)=O)C(C)C)C(C)C)C(=O)N[C@@H](CCCCN)C(=O)N[C@@H](CC(=O)O)C(=O)N[C@@H](CCCNC(=N)N)C(=O)N[C@@H](CO)C(=O)NCC(=O)N[C@@H](CC(=O)O)C(=O)N[C@@H](CC)C(=O)N[C@@H](CO)C(=O)N1CCC[C@H]1C(=O)N[C@@H](CCC(=O)O)C(=O)N[C@H](C(=O)N[C@@H](CO)C(=O)N[C@@H](CC(C)C)C(=O)N[C@@H](CCCCN)C(=O)N[C@@H](CCC(N)=O)C(=O)N[C@@H](CC(C)C)C(=O)N[C@@H](CCCNC(=N)N)C(=O)N[C@@H](CC(C)C)C(N)=O)[C@@H](C)O [B1, CD160(56–79)^(C61X,C68X)] (HELM PEPTIDE1{[ac].F.V.V.F.L.[Abu].K.D.R.S.G.D.[Abu].S.P.E.T.S.L.K.Q.L.R.L.[am]}$$$$V2.0) | 1.49 | 4.68 |  |  |  |  |  | 
4 | CC[C@@H]1NC(=O)[C@H](CC(C)C)NC(=O)[C@H](Cc2ccccc2)NC(=O)[C@H](C(C)C)NC(=O)[C@@H](NC(=O)[C@H](Cc2ccccc2)NC(C)=O)CSSC[C@@H](C(=O)N[C@@H](CC(C)C)C(N)=O)NC(=O)[C@H](CC(C)C)NC(=O)[C@H](CCC(N)=O)NC(=O)[C@H](CCCCN)NC(=O)[C@H](CC(C)C)NC(=O)[C@H](CO)NC(=O)[C@H]([C@@H](C)O)NC(=O)[C@H](CCC(=O)O)NC(=O)[C@@H]2CCCN2C(=O)[C@H](CO)NC(=O)[C@H](CC)NC(=O)[C@H](CC(=O)O)NC(=O)CNC(=O)[C@H](CO)NC(=O)[C@H](CCCNC(=N)N)NC(=O)[C@H](CC(=O)O)NC(=O)[C@H](CCCCN)NC1=O [B2, CD160(56–79)^(V57C,C61X,C68X,R78C)] (HELM PEPTIDE1{[ac].F.C.V.F.L.[Abu].K.D.R.S.G.D.[Abu].S.P.E.T.S.L.K.Q.L.C.L.[am]}$PEPTIDE1,PEPTIDE1,3:R3-24:R3$$$V2.0) | -3.89 | -2.56 |  |  |  |  | 47 | 9
